25 compounds from ChEMBL document CHEMBL4266060, “Structure-Property Relationship Studies of Influenza A Virus AM2-S31N Proton Channel Blockers” (ACS Med Chem Lett, 2018) can be followed below.

Active and inactive are the calls of the source. No cut-off for these calls is given here.

In series [1] the test system is Influenza A virus. Description: Inhibition of Influenza A virus AM2 expressed in xenopus laevis frog oocytes assessed as inhibition of channel current at 100 uM after 2 mins by two-electrode voltage clamp assay relative to control. The class given is cell-based.
For series [2], the system named is Influenza A virus. In kind it is functional, A/California/07/2009(H1N1), MDCK.
The nature of series [3]: Cytotoxicity against MDCK cells after 48 hrs by neutral red uptake assay. In kind it is cell-based, Canis lupus familiaris. The conditions noted are these: dog.
Series [4] deals with Influenza A virus. In kind it is functional, organism-based. The conditions noted are these: A/California/07/2009(H1N1), MDCK, 30 nM.
Series [5] relates to Influenza A virus. The class given is functional, organism-based. The conditions noted are these: A/California/07/2009(H1N1), MDCK, 30 nM. The source holds these as a separate data set.
Series [6] deals with Influenza A virus. The class given is functional, organism-based. The note with it: A/California/07/2009(H1N1), A549, 30 nM.
Series [7] deals with Influenza A virus. Description: microbe, parasite or virus in culture. The conditions noted are these: A/California/07/2009(H1N1), MDCK.
Description: Antiviral activity against Influenza A virus (A/California/07/2009(H1N1)) infected in MDCK cells expressing ST6Gal-1 assessed as reduction in plaque formation pretreated with virus for 30 mins followed by viral infection measured after 2 to 3 days by naphthalene black dye based assay
Series [8] is described as follows: Half life in mouse liver microsomes at 0.5 uM. The class given is ADME, microsome. The note with it: for half-life at 0.5 µM: liver microsomes. For orientation: Liver microsomes are vesicles of endoplasmic reticulum, rich in cytochrome P450 enzymes.
Series [9] is described as follows: Half life in mouse liver microsomes at 1 uM in presence of NADPH generating system by LC-MS/MS analysis. The class given is ADME, microsome.
Series [10] can be described thus: Intrinsic clearance in mouse liver microsomes at 1 uM in presence of NADPH generating system by LC-MS/MS analysis. In kind it is ADME, microsome. The note with it: read-out: CLH.
A short description of series [11]: Half life in human liver microsomes at 1 uM in presence of NADPH generating system by LC-MS/MS analysis. The class given is ADME, microsome.
A short description of series [12]: Permeability of the compound by PAMPA. In kind it is ADME. The note with it: read-out: permeability.
Series [13] has as its system Influenza A virus. The class given is functional, organism-based. The conditions noted are these: A/California/07/2009(H1N1), MDCK, 10 uM.
The test system of series [14] is Influenza A virus. The class given is functional, A/California/07/2009(H1N1), A549.
In series [15] the test system is Influenza A virus. In kind it is functional, A/California/07/2009(H1N1), A549. The source holds these as a separate data set.
For series [16], the system named is Influenza A virus. The class given is functional, A/California/07/2009(H1N1), A549. The source holds these as a separate data set.
A short description of series [17]: Intrinsic clearance in mouse liver microsomes at 0.5 uM. The class given is ADME, microsome. The note with it: read-out: CLH.

What is called inhibition is the share of the control response that was lost under treatment. Consider `OC12CC3CC(C1)CC(NCc1cnc(Br)s1)(C3)C2`, for which the inhibition in [1] came to 2.7%. In addition, the Activity in [2] was determined as 102.1%.

Consider `OC12CC3CC(C1)CC(NCc1ccc(-c4ccc(F)cc4F)s1)(C3)C2`, for which the inhibition in [1] came out at 0%. For the same compound, the Activity in series [2] is recorded as 44.1%.

With `CSc1ccccc1-c1ccc(CNC23CC4CC(CC(O)(C4)C2)C3)s1`, the inhibition in [1] worked out at 0%. The same compound gave an Activity in [2] of 47.7%.

The term CC50 denotes the concentration that lowers cell viability or growth by half. A lower CC50 goes with greater toxicity to the cells. Broadly, the EC50 is the concentration needed to bring the measured effect to its halfway point. In turn, `CCC(CC)O[C@@H]1C=C(C(=O)O)C[C@H](N)[C@H]1NC(C)=O` [OSELTAMIVIR CARBOXYLATE] came in with a CC50 at 48 h in [3] of more than 20 µM. The result in [4] was Active. Moreover, the outcome in series [5] and in series [6] was inactive. This compound had an EC50 in series [7] of 0.0024 µM.

For `C[Si](C)(C)c1ccc(CNC23CC4CC(CC(O)(C4)C2)C3)cc1`, the t1/2 in series [8] (microsomes, 0.5 µM) is 4.4 min.

Broadly, the half-life is how long it takes for the measured level to halve. For `OC12CC3CC(C1)CC(NCc1ccc(Br)s1)(C3)C2`, in series [1], the inhibition came out at 11.4%. In series [2], the Activity came out at 3.9%. Also, in series [3], the midpoint of cytotoxicity, the CC50 at 48 h, lay at 238 µM. Further, the half-life at 1 µM in series [9] and in [11] was more than 145 min throughout. Besides, the CLint scaled at 1 µM in series [10] was less than 38 mL/min/kg. Besides, the Papp in [12] amounted to 25.3 ×10⁻⁶ cm/s. This compound displayed an EC50 in [7] of 1.1 µM.

In the case of `OC12CC3CC(C1)CC(NCc1ccc(I)s1)(C3)C2`, the inhibition in series [1] was found to be 3.2%. The Activity in series [2] was 2.5%; in series [14] it was 1.8 log10PFU/ml; in [15], 2.1 log10PFU/ml; in [16], 2.9 log10PFU/ml. Besides, the CC50 at 48 h in series [3] came to 317 µM. In addition, the half-life at 1 µM in series [9] and in [11] was more than 145 min in each case. Also, the CLint scaled at 1 µM in [10] is less than 38 mL/min/kg. Also, the Papp in series [12] was 20.4 ×10⁻⁶ cm/s. The result in [13] was Active. In addition, in series [7], the EC50 was found to be 0.9 µM.

On to `OC12CC3CC(C1)CC(NCc1nc(Br)cs1)(C3)C2`, for which the inhibition in series [1] is 3.9%. In series [2], this compound registered an Activity of 108%.

`OC12CC3CC(C1)CC(NCc1ccc(-c4ccccc4Cl)s1)(C3)C2`: the inhibition in [1] was determined as 0%. This compound also displayed an Activity in [2] of 20.4%. For the same compound, half-maximal cytotoxicity in [3] (CC50 at 48 h) was put at 65.2 µM. Also, the EC50 in series [7] amounted to 2.5 µM.

In the case of `OC12CC3CC(C1)CC(NCc1cc(Br)cs1)(C3)C2`, the inhibition in series [1] worked out at 6.5%. In [2], this compound showed an Activity of 31.4%. Further, the CC50 at 48 h in series [3] was 381 µM. Further, the half-life at 1 µM in series [9] stood at 101 min. Besides, in [10], the CLint scaled at 1 µM stood at 54.5 mL/min/kg. For the same compound, the EC50 in series [7] came to 3.1 µM.

For the compound `c1csc(-c2ccc(CNC34CC5CC(CC(C5)C3)C4)s2)c1`, the inhibition in series [1] was found to be 17.9%. In series [2], this compound came in with an Activity of 58.5%. For the same compound, the CC50 at 48 h in series [3] was 19.5 µM. Also, the half-life at 1 µM in [9] was found to be 2.8 min. Also, the CLint scaled at 1 µM in [10] was 1940 mL/min/kg. The EC50 in series [7] is 12.2 µM.

With `Brc1ccc(CNC23CC4CC(CC(C4)C2)C3)[se]1`, the inhibition in [1] worked out at 56.1%. This compound also displayed an Activity in series [2] of 0%. In series [3], this compound registered a CC50 at 48 h of 82.1 µM. Also, the half-life at 1 µM in [9] stood at 32.1 min. Also, in series [10], the CLint scaled at 1 µM worked out at 171 mL/min/kg. Also, in series [7], the EC50 came to 2.2 µM.

For `COc1ccc(-c2ccc(CNC34CC5CC(CC(O)(C5)C3)C4)s2)cc1OC`, in series [1], the inhibition was determined as 0%. Also, in [2], the Activity was 67.5%.

With `Ic1ccc(CNC23CC4CC(CC(C4)C2)C3)s1`, the inhibition in series [1] worked out at 91%. In series [2], this compound returned an Activity of 1.8%. The compound also yielded a 50% cytotoxic concentration (CC50) at 48 h in [3] of 70.2 µM. The half-life at 1 µM in series [9] is 24.5 min. The CLint scaled at 1 µM in series [10] was 224 mL/min/kg. The compound also returned an EC50 in series [7] of 1 µM.

As to `COc1ncc(-c2ccc(CNC34CC5CC(CC(O)(C5)C3)C4)s2)cn1`, the inhibition in [1] was 0%. This compound gave an Activity in [2] of 74%.

On to `OC12CC3CC(C1)CC(NCc1ccc(-c4ccccc4)s1)(C3)C2`, for which the inhibition in series [1] came out at 0.3%. In addition, in series [2], the Activity is given as 27.9%. Moreover, in series [3], the CC50 at 48 h amounted to 80.5 µM. In [7], this compound showed an EC50 of 2.1 µM.

With `OC12CC3CC(C1)CC(NCc1csc(Br)c1)(C3)C2`, in series [1], the inhibition worked out at 1.9%. This compound also displayed an Activity in [2] of 31.3%. Moreover, in series [3], the CC50 at 48 h came to 364 µM. In [7], this compound showed an EC50 of 5.1 µM.

Regarding `c1csc(-c2cc(CNC34CC5CC(CC(C5)C3)C4)no2)c1`, in [2], the Activity is given as 0%.

`OC12CC3CC(C1)CC(NCc1cnc(N4CCCCC4)nc1)(C3)C2` displayed a half-life at 0.5 µM in [8] of 19.4 min. Besides, the CLint scaled at 0.5 µM in series [17] came out at 283 mL/min/kg.

As for `Brc1ccc(CNC23CC4CC(CC(C4)C2)C3)s1`, the inhibition in [1] is 77.2%. The Activity in series [2] came to 3.2%. Also, it took 123 µM to reach half-maximal cytotoxicity in series [3] (CC50 at 48 h). The half-life at 1 µM in series [9] was more than 145 min. Further, the CLint scaled at 1 µM in series [10] was less than 38 mL/min/kg. In series [8], this compound had a half-life at 0.5 µM of more than 145 min. Further, in series [17], the CLint scaled at 0.5 µM is less than 38 mL/min/kg. Besides, in series [7], the EC50 is 2.9 µM.

For the compound `COC(=O)c1ccc(-c2ccc(CNC34CC5CC(CC(O)(C5)C3)C4)s2)cc1`, in series [1], the inhibition was found to be 0%. For the same compound, the Activity in [2] is 52%.

`c1nc(N2CCCCCC2)ncc1CNC12CC3CC(CC(C3)C1)C2` showed a half-life at 0.5 µM in series [8] of 0.8 min. In addition, the CLint scaled at 0.5 µM in series [17] was 6760 mL/min/kg.

`Brc1ccc(CNC23CCC4CC(CC(C4)C2)C3)s1`: the inhibition in series [1] is 86.5%. This compound showed an Activity in [2] of 0%. The midpoint of cytotoxicity in series [3], the CC50 at 48 h, lay at 43.1 µM. Also, the half-life at 1 µM in [9] came out at 9.1 min. Also, the CLint scaled at 1 µM in [10] is 604 mL/min/kg. This compound registered a 50% effective concentration (EC50) in [7] of 0.6 µM.

In series [8], `OC12CC3CC(C1)CC(NCc1ccc(N4CCCCCC4)cn1)(C3)C2` returned a half-life at 0.5 µM of 22.1 min. Also, the CLint scaled at 0.5 µM in series [17] came out at 248 mL/min/kg.

For `COc1ccc(-c2ccc(CNC34CC5CC(CC(O)(C5)C3)C4)s2)cn1`, the inhibition in series [1] worked out at 0%. This compound had an Activity in series [2] of 40.5%.
